Laboratory results as given in ChEMBL document CHEMBL1201862, “PubChem BioAssay data set” (2004).
The source made the active and inactive calls.

Key:
[1] = luciferase reporter signal suppression in cells – H4 neuroglioma cells, luminescence, dose response (AID 1990); assay type: functional, cell-based
[2] = Luminescence Cell-Based Dose Response HTS to Identify Inhibitors of 5'UTR Stem-Loop Driven Prion Protein mRNA Translation in H4 Neuroglioblastoma Cells. [Related pubchem assays: 1827 (Project Summary), 1813 (Primary HTS)]; assay type: functional
[3] = alpha-synuclein stem-loop luciferase translation blockers – H4 neuroglioma cells, luminescence, confirmation (AID 1988); assay type: functional, cell-based
[4] = Trypanosoma cruzi growth suppression in host cells – NIH3T3 host cells, beta-gal luminescence, confirmation (AID 2044); assay type: functional, cell-based;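 further: intracellular parasites grown in NIH/3T3 mouse fibroblasts as host cells; luminescent beta-galactosidase reporter signal from transgenic T. cruzi replicating inside host cells; inhibitors lower the luminescence signal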
[5] = NIH3T3 cell viability loss – ATP luminescence, mouse fibroblasts, counter-screen, dose response (AID 2010); assay type: functional, cell-based;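 further: cells exposed to compound for about 90 hours before reading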
[6] = reduction of Shn3 3'UTR-driven luciferase in osteoblasts – cell-based, Clone20 osteoblasts, firefly luciferase, cherry-picked, dose response (AID 624132); assay type: functional;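 further: firefly luciferase luminescence from reporter carrying the Shn3 3'UTR in osteoblasts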
[7] = loss of viability in HepG2 cells – cell-based, CellTiter-Glo, cherry-picked, cytotoxicity control for Shn3 inhibitor project, dose response (AID 624134); assay type: functional
[8] = non-specific 3'UTR reporter inhibition in Clone20-Shn3RL – cell-based, Renilla luciferase, cherry-picked, counter-screen for Shn3 inhibitor project, dose response (AID 624133); assay type: functional
[9] = general mammalian cell viability loss – inhibitor set, cherry-pick, set 2, cytotoxicity control for miR-122 modulator project, dose response (AID 720697); assay type: functional, cell-based
[10] = general mammalian cell viability loss – activator set, cherry-pick, cytotoxicity control for miR-122 modulator project, dose response (AID 720690); assay type: functional, cell-based;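 further: HEK293T human cells scored for general mammalian cytotoxicity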
[11] = molecular target: FAD-linked sulfhydryl oxidase ALR (Homo sapiens, UniProt P55789); test: ALR-catalysed DTT oxidation blockers – biochemical, H2O2 detection, luminescence, cherry-pick, dose response (AID 493248)
[12] = molecular target: T1, Carboxy-terminal domain RNA polymerase II polypeptide A small phosphatase 1 (Homo sapiens, UniProt Q9GZU7); test: CTDSP1 inhibitors, concentration-response, biochemical, absorbance readout, ultra-high-throughput screen actives (AID 540297); assay type: functional
T1 sequence (Q9GZU7 whole entry): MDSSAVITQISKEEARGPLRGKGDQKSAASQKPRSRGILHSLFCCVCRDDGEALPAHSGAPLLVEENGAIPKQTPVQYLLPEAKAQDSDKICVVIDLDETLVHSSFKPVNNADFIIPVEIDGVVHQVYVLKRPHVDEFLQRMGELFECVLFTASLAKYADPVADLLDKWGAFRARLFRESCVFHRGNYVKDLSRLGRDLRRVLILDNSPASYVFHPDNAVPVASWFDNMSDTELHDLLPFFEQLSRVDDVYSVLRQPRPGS

Caspase-6 = molecular target: T2, Caspase-6 (Homo sapiens, UniProt P55212); test: inhibition of CASP6 peptide cleavage – biochemical, VEID-R110 fluorescence, cherry-pick, dose response (AID 720632)
T2 sequence (P55212 whole entry): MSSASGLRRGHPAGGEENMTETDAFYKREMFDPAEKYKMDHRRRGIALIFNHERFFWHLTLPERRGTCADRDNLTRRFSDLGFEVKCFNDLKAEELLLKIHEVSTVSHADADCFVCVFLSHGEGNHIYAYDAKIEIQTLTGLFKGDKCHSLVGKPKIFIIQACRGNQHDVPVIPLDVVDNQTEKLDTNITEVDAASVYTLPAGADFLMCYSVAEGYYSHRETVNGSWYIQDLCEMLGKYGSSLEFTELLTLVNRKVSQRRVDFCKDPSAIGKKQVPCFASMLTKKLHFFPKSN

[13] = molecular target: T3, Histone-lysine N-methyltransferase NSD2 (Homo sapiens, UniProt O96028); assay type: biochemical
T3 sequence (O96028 whole entry): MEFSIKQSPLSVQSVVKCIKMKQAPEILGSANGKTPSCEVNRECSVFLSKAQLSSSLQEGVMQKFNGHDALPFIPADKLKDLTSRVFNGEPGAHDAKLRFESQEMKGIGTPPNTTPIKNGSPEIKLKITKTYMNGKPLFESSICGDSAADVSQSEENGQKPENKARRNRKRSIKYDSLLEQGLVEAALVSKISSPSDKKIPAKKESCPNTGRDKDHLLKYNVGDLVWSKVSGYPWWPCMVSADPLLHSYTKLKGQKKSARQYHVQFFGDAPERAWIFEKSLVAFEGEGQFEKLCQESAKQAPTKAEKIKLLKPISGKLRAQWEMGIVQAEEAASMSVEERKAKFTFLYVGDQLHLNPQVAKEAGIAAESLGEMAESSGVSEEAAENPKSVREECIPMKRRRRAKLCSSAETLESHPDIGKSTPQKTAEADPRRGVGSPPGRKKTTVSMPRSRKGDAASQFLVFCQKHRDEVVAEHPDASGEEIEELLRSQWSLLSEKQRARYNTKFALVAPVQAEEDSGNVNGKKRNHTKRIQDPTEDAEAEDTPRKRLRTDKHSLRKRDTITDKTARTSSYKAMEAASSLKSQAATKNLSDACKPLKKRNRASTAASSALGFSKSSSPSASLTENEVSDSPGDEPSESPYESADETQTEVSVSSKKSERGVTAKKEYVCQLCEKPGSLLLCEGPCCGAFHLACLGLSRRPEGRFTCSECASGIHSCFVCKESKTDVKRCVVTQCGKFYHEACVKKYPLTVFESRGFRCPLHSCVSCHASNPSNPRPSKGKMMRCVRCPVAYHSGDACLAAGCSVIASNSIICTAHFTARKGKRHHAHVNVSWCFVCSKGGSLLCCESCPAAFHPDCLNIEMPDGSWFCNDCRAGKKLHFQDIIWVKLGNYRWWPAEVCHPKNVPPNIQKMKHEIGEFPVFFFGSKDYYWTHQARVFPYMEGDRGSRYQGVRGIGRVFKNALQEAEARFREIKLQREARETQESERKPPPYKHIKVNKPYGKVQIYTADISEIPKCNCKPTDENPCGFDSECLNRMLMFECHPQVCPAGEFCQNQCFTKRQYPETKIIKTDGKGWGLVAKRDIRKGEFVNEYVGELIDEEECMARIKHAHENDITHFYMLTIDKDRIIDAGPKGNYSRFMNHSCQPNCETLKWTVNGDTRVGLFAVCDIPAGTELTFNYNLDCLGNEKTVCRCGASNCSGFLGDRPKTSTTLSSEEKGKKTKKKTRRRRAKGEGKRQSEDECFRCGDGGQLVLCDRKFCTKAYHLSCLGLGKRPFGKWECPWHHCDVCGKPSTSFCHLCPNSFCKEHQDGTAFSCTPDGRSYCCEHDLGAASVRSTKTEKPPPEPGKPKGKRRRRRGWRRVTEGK

fMet-Leu-Phe receptor = molecular target: T4, fMet-Leu-Phe receptor (Homo sapiens, UniProt P21462); test: formyl peptide receptor binders – dose response (AID 519); assay type: functional
T4 sequence (P21462 whole entry): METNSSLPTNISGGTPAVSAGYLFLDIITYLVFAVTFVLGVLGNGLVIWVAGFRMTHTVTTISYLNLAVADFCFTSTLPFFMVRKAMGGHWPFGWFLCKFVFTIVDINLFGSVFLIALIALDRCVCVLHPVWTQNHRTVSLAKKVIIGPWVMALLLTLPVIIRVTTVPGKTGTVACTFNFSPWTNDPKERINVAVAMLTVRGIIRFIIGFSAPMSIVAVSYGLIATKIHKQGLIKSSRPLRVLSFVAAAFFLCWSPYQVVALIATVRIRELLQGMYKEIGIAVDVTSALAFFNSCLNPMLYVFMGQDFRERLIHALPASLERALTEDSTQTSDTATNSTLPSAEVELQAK

BJ [14] = test: BJ-TERT fibroblast viability loss – cell-based, RAS-independent, luminescence, dose response (AID 1933); assay type: functional; settings: Homo sapiens
BJ [15] = test: cells; assay type: functional, cell-based; settings: Homo sapiens
BJ [16] = test: BJ-TERT-LT-ST fibroblast viability loss – cell-based, RAS-independent, luminescence, dose response (AID 1935); assay type: functional; settings: Homo sapiens;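 further: BJ fibroblasts immortalized with TERT plus LT and ST oncogenes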
[17] = DRD fibroblast viability loss – cell-based, non-viral oncogenic, luminescence, dose response (AID 1934); assay type: functional; settings: Homo sapiens
BJ [18] = test: growth inhibition of engineered Ras-driven BJ cells – cell-based, alamar blue fluorescence, cherrypicked samples, dose response (AID 2631); assay type: functional; settings: Homo sapiens;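 further: confirmatory dose-response assay in RAS-dependent BJ fibroblasts engineered with TERT, LT and ST, with cytotoxicity read by fluorescence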
[19] = activation of miR-122 Renilla sensor silencing – cell-based, Huh7 psiCHECK-miR122, Renilla luciferase, cherry-picked, dose response (AID 651956); assay type: functional;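 further: huh7 hepatoma cells stably carrying a psiCHECK-2 miR-122 sensor plasmid; renilla luciferase signal reporting endogenous miR-122 activity after 48 h compound exposure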
Paired box protein Pax-8 = Paired box protein Pax-8 (Homo sapiens, UniProt Q06710); test: PAX8 transcriptional activity inhibition in RMG-I – RMG-I cells, luciferase, cherry-pick, dose response (AID 687027); assay type: functional, cell-based;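 further: luciferase reporter driven by Pax8 target thyroperoxidase promoter measured by SteadyGlo luminescence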
[20] = general cell-killing toxicity readout – plate reader, dry powder samples, cytotoxicity control for PAX8 inhibitor project, dose response (AID 743021); assay type: functional, cell-based
[21] = molecular target: T5, COUP transcription factor 2 (Homo sapiens, UniProt P24468); test: Luminescence-based cell-based high throughput dose response assay to identify inhibitors of COUP-TFII (NR2F2).; assay type: functional;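 further: HEK293 cells transiently cotransfected with COUP-TFII expression vector and reporter; luciferase reporter luminescence driven by COUP-TFII from the pX2-168 reporter plasmid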
T5 sequence (P24468 whole entry): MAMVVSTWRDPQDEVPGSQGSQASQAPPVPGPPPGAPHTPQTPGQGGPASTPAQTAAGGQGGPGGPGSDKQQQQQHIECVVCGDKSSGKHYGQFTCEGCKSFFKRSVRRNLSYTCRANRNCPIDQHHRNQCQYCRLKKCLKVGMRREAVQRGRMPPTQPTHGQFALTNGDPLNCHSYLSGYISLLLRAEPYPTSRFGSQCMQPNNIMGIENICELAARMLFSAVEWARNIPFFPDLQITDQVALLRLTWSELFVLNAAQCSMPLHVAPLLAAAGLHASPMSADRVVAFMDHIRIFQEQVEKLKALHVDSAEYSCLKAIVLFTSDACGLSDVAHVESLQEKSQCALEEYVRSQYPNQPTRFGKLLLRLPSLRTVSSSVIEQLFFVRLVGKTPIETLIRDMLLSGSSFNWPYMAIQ

[22] = microbe, parasite or virus in culture; assay type: functional; settings: Mycobacterium tuberculosis
[23] = HEK-293T viability loss after treatment – luminescence, T-cell screen hits, cytotoxicity control for TCR NF-kB inhibitor project, dose response (AID 489026); assay type: functional, cell-based;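 further: cells exposed to compound about 14 hours before the viability readout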
Fatty acid synthase [24] = molecular target: T6, Fatty acid synthase (Homo sapiens, UniProt P49327); test: inhibition of human FAS-TE enzyme activity – biochemical, endpoint fluorescence intensity, uHTS hits, dose response (AID 624327); assay type: functional;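 further: fluorescence from hydrolysis of an O-methyl fluorescein acyl ester substrate by the enzyme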
Fatty acid synthase [25] = molecular target: T6, Fatty acid synthase; test: inhibition of human FAS-TE enzyme activity – biochemical, kinetic fluorescence intensity, dose response (AID 624326); assay type: functional;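 further: rate of fluorescence rise from hydrolysis of a fluorogenic O-methyl fluorescein ester substrate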
[26] = viability loss in CEM21 cells – cell-based, CellTiter-Glo luminescence, cherry-picked, cytotoxicity control for viral fusion inhibitor project, dose response (AID 652042); assay type: functional;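 further: potency for signal decrease meaning cytotoxicity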
[27] = HIV-1 AD8 envelope cell-cell fusion blockers – cherry-pick, dose response (AID 652062); assay type: functional, cell-based;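 further: luciferase signal from cell-cell fusion driven by HIV-1 clade B AD8 Env; potency is for inhibitors of fusion seen as a drop in luminescence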

T6 sequence (P49327 whole entry): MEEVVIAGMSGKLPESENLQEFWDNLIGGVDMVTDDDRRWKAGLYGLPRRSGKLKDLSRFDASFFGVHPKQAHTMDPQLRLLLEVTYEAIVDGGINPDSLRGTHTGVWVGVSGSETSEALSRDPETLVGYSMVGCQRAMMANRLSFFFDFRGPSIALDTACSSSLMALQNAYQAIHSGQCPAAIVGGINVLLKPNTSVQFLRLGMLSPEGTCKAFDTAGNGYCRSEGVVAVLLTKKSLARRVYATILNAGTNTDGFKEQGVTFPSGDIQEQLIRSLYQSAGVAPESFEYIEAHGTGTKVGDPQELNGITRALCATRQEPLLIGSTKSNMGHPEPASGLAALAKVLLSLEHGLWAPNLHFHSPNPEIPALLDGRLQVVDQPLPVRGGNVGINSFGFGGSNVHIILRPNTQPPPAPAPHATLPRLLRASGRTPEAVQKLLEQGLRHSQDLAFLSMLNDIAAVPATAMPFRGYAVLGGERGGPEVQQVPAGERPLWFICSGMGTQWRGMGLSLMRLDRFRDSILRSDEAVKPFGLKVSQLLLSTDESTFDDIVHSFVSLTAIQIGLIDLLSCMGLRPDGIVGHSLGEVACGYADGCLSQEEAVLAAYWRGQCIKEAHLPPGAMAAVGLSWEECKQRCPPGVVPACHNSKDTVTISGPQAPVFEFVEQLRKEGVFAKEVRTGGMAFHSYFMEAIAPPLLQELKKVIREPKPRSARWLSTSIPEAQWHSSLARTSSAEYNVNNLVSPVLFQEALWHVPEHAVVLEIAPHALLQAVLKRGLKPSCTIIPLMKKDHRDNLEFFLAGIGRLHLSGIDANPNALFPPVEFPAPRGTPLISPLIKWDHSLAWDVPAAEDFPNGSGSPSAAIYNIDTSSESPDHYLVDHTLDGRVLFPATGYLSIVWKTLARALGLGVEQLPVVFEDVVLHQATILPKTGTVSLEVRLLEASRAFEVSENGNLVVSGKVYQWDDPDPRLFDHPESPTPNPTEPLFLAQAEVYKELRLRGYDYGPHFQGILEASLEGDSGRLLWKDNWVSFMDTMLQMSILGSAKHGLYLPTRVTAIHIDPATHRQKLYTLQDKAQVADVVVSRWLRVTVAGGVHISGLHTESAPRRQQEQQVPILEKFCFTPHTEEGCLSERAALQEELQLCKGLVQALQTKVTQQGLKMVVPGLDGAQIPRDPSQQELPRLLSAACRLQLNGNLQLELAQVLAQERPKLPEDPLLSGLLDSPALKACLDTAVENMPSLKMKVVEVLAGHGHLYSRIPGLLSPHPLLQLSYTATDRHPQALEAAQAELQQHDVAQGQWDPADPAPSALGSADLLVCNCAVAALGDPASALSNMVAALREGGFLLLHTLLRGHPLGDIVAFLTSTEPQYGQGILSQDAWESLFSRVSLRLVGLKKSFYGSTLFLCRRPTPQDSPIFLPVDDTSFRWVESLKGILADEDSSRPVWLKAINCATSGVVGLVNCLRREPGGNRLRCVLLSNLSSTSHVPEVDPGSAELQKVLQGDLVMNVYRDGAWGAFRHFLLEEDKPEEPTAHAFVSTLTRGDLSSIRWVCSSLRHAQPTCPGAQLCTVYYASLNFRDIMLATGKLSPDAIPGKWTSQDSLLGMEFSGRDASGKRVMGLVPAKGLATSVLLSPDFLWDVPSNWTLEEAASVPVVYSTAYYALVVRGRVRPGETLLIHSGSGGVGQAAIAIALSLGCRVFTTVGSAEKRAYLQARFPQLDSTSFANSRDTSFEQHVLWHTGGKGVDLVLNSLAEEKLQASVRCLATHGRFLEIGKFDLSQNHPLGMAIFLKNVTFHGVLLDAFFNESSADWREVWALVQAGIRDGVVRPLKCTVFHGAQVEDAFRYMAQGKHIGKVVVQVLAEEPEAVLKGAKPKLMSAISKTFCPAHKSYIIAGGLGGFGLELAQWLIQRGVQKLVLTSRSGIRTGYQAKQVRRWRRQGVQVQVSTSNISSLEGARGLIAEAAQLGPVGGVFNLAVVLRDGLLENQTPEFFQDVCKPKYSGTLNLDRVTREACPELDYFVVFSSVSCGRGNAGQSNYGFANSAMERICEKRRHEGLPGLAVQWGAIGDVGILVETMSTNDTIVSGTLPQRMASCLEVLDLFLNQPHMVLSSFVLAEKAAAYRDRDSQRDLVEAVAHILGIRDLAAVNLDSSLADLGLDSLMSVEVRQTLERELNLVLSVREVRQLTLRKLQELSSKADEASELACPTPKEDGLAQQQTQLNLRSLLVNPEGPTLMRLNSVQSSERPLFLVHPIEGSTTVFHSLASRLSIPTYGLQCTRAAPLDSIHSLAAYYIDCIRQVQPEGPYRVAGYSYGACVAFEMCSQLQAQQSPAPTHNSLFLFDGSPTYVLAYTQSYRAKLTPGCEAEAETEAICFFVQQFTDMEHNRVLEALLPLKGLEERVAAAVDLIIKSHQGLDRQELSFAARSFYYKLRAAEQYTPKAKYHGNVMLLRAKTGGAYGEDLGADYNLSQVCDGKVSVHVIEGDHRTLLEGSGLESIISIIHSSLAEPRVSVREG
Chain of Paired box protein Pax-8 (Q06710 whole entry): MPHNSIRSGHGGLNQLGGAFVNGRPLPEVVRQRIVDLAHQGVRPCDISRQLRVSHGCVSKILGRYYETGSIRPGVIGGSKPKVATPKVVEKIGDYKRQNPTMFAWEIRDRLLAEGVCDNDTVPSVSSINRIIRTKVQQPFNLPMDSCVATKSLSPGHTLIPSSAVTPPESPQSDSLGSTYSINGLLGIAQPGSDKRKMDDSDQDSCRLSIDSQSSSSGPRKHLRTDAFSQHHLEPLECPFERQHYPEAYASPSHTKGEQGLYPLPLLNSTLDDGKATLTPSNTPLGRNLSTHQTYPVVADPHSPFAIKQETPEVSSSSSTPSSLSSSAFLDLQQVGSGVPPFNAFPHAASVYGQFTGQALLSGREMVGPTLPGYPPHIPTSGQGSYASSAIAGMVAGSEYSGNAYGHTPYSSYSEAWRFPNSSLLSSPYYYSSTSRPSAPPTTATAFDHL
Chain of FAD-linked sulfhydryl oxidase ALR (P55789 whole entry, the tested form may be a part): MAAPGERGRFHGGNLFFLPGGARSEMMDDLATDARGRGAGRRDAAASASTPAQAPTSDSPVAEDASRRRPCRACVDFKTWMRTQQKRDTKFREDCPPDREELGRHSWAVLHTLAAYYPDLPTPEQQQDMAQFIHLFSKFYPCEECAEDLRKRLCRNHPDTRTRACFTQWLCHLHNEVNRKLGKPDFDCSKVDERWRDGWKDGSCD

N#Cc1ccc(NC(=O)Nc2ccc(Oc3ccc(NC(=O)Nc4ccc(C#N)cc4)cc3)cc2)cc1
EC50 [1]: > 120 µM (not active) | EC50 [2]: 10.1 µM (active) | EC50 [3]: 8.67 µM (active) | EC50 [4]: 1.01 µM (active) | EC50 [5]: > 60 µM (not active) | AC50 [6]: 2.68 µM (active) | AC50 [7]: 6.46 µM (active) | AC50 [8]: 13.1 µM (active) | AC50 [9]: 5.02 µM (active) | AC50 [10]: 6.66 µM (active)

C=CCc1cc(/C=C/c2nc(O)c([N+](=O)[O-])c(O)n2)cc(OC)c1O
AC50 [11]: 0.469 µM (active) | IC50 [12]: 19.3 µM (active) | AC50 (Caspase-6): 9.31 µM (active) | AC50 [13]: > 20 µM (inactive)

COc1ccccc1C1C(C(=O)c2ccccc2)=C(O)C(=O)N1CC(C)O (stereo unspecified)
Ki (fMet-Leu-Phe receptor): 24.6 µM (inactive)

O=C1Nc2ccccc2/C1=C1/SC(=S)N(CC2CCCO2)C1=O (stereo unspecified)
Ki (fMet-Leu-Phe receptor): > 66.7 µM (inactive)

Cc1onc(C(=O)N2CCN(C(c3ccccc3)c3ccccc3)CC2)c1[N+](=O)[O-]
EC50 (BJ [14]): 0.659 µM (inconclusive) | EC50 (BJ [15]): 5.65 µM (active) | EC50 (BJ [16]): > 150 µM (not active) | EC50 [17]: 4.77 µM (active) | EC50 (BJ [18]): 6.63 µM (active) | AC50 [19]: 66.8 µM (active) | AC50 (Paired box protein Pax-8): 5.28 µM (active) | AC50 [9]: 10.8 µM (active) | AC50 [10]: 3.14 µM (active) | AC50 [20]: 3.3 µM (active)

CCOc1ccccc1NC(=O)CSc1nccn1-c1ccccc1
Ki (fMet-Leu-Phe receptor): > 66.7 µM (inactive)

CCOc1cc(C(=O)O)ccc1OCCOc1ccccc1
AC50 (Caspase-6): 34 µM (active)

CCOC(=O)N1CCC(NC(=O)C2CCCN(Cc3nc(-c4ccc(CC)cc4)oc3C)C2)CC1 (stereo unspecified)
IC50 [21]: 9.26 µM (active)

CC1Cc2cc(-c3csc(NC(=O)Cc4cccs4)n3)ccc2N1S(C)(=O)=O (stereo unspecified)
CC50 [22]: > 40 µM (active) | IC50 [23]: 38 µM (inactive) | IC50 (Fatty acid synthase [24]): 14.1 µM (active) | IC50 (Fatty acid synthase [25]): 7.01 µM (active) | AC50 [26]: 54.5 µM (active) | AC50 [27]: 5.65 µM (active) | IC50 [21]: 3.11 µM (active)
